Results as given in ChEMBL document CHEMBL4420062, “Tfpi inhibitors and methods of use” (2013).
pEC50: −log10 of the molar value.

How the values were obtained:
[1] = tested on: Plasma; assay: (§1) Effect on blood coagulation parameters in plasma isolated from hemophilia A patient assessed as clotting time at […] by rotation thromboelastography (reference value: 2907 secs); assay type: functional, Homo sapiens
[2] = tested on: Plasma; assay: as §1; assay type: functional, Homo sapiens; remark: listed apart in the source
[3] = tested on: Plasma; assay: Effect on blood coagulation parameters in plasma isolated from hemophilia A patient assessed as clotting time at 40 nM by rotation thromboelastography (reference value: 2907 secs); assay type: functional, Homo sapiens
[4] = tested on: Plasma; assay: Effect on blood coagulation parameters in plasma isolated from hemophilia A patient assessed as clotting time at 120 nM by rotation thromboelastography (reference value: 2907 secs); assay type: functional, Homo sapiens
[5] = tested on: Plasma; assay: (§2) Effect on blood coagulation parameters in plasma isolated from hemophilia A patient assessed as clot formation time at […] by rotation thromboelastography (reference value: 1540 secs); assay type: functional, Homo sapiens
[6] = tested on: Plasma; assay: as §2; assay type: functional, Homo sapiens; remark: listed apart in the source
[7] = tested on: Plasma; assay: Effect on blood coagulation parameters in plasma isolated from hemophilia A patient assessed as clot formation time at 40 nM by rotation thromboelastography (reference value: 1540 secs); assay type: functional, Homo sapiens
[8] = tested on: Plasma; assay: Effect on blood coagulation parameters in plasma isolated from hemophilia A patient assessed as clot formation time at 120 nM by rotation thromboelastography (reference value: 1540 secs); assay type: functional, Homo sapiens
[9] = tested on: Plasma; assay: Effect on blood coagulation parameters in plasma isolated from hemophilia A patient assessed as maximum clot firmness at 40 nM by rotation thromboelastography; assay type: functional, Homo sapiens
[10] = tested on: Plasma; assay: Effect on blood coagulation parameters in plasma isolated from hemophilia A patient assessed as maximum clot firmness at 120 nM by rotation thromboelastography; assay type: functional, Homo sapiens
[11] = tested on: Plasma; assay: (§3) Effect on blood coagulation parameters in plasma isolated from hemophilia A patient at […] by rotation thromboelastography (reference value: 0%); assay type: functional, Homo sapiens
[12] = tested on: Plasma; assay: as §3; assay type: functional, Homo sapiens; remark: listed apart in the source
[13] = tested on: Plasma; assay: Effect on blood coagulation parameters in plasma isolated from hemophilia A patient at 40 nM by rotation thromboelastography (reference value: 0%); assay type: functional, Homo sapiens
[14] = tested on: Plasma; assay: Effect on blood coagulation parameters in plasma isolated from hemophilia A patient at 120 nM by rotation thromboelastography (reference value: 0%); assay type: functional, Homo sapiens
[15] = Stability in human plasma assessed as parent compound remaining after 24 hrs; assay type: ADME, cell-free; settings: read-out: Stability
[16] = Stability in mouse plasma assessed as parent compound remaining after 24 hrs; assay type: ADME, cell-free; settings: read-out: Stability
[17] = molecular target: T1, Tissue factor pathway inhibitor (Homo sapiens, UniProt P10646); assay: Inhibition of TFPI in human plasma with induced factor-8 deficiency assessed as increase in thrombin generation by measuring FEIBA at 10 uM using thrombin-specific fluorogenic substrate Z-Gly-Gly-Arg-AMC by calibrated automated thrombography; assay type: cell-free
T1 sequence (P10646 whole entry): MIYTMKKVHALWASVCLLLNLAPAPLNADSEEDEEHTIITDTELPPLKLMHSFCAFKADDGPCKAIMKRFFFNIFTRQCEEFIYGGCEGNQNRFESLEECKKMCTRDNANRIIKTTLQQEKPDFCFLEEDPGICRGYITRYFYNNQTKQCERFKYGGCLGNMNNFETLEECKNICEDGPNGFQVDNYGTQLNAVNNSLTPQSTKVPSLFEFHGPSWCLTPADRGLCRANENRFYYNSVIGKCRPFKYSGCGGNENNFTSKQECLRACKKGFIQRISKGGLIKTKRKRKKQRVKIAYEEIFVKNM

[18] = molecular target: Tissue factor pathway inhibitor (Homo sapiens) (UniProt P10646); assay: Inhibition of TFPI in human plasma with induced factor-8 deficiency assessed as increase in thrombin generation by measuring FEIBA at 10 uM using thrombin-specific fluorogenic substrate Z-Gly-Gly-Arg-AMC by calibrated automated thrombography relative to inhibitory polyclonal anti-TFPI antibody; assay type: cell-free

| remaining at 24 h [15] | remaining at 24 h [16] | pEC50 [17] | inhibition [18] | Structure (SMILES) | Time [1] | Time [2] | Time [3] | Time [4] | Time [5] | Time [6] | Time [7] | Time [8] | Activity [9] | Activity [10] | Activity [11] | Activity [12] | Activity [13] | Activity [14] |
| --- | --- | --- | --- | --- | --- | --- | --- | --- | --- | --- | --- | --- | --- | --- | --- | --- | --- | --- |
| 10 to 23.8% | 10 to 15.9% |  |  | CCN1C(=O)CC(SC[C@H](NC(=O)[C@H](CC(C)C)NC(=O)[C@H](CCCCN)NC(=O)[C@H](C)NC(=O)C(C)(C)NC(=O)[C@H](CC(C)C)NC(=O)[C@H](CCCNC(=N)N)NC(=O)[C@H](CCC(=O)O)NC(=O)[C@H](Cc2ccccc2)NC(=O)[C@H](Cc2ccc(O)cc2)NC(=O)CNC(=O)[C@H](CC(=O)O)NC(=O)[C@@H](NC(=O)[C@H](Cc2cnc[nH]2)NC(=O)[C@@H](NC(=O)[C@H](CC(N)=O)NC(=O)[C@H]2CCCN2C(=O)[C@H](CCCCN)NC(=O)[C@H](CO)NC(=O)[C@H](CCC(N)=O)NC(=O)[C@H](Cc2ccccc2)NC(C)=O)C(C)C)C(C)C)C(N)=O)C1=O (stereo partly drawn) | 2901 s | 2249 s | 1143 s | 853 s | 2488 s | 1480 s | 457 s | 219 s | 64 mm | 64 mm | 0% | 44% | 119% | 139% |
|  |  | 8.32 | 55.9% | CSCC[C@@H]1NC(=O)[C@H](C)NC(=O)[C@H](NC(=O)[C@H](Cc2cnc[nH]2)NC(=O)[C@H](Cc2c[nH]c3ccccc23)NC(=O)[C@H](CCCCN)NC(=O)[C@H](Cc2ccc(O)cc2)NC(=O)[C@H](Cc2cnc[nH]2)NC(=O)[C@H](CO)NC(C)=O)CSSC[C@@H](C(=O)N[C@H](C(=O)N[C@@H](Cc2c[nH]c3ccccc23)C(=O)N[C@H](C(=O)N[C@@H](CCCCN)C(=O)N[C@@H](Cc2ccccc2)C(N)=O)C(C)C)C(C)C)NC(=O)[C@H](CO)NC(=O)[C@H](CCSC)NC(=O)[C@H]([C@@H](C)O)NC(=O)CNC(=O)[C@H]([C@@H](C)O)NC(=O)[C@H](CCSC)NC(=O)[C@H](CC(=O)O)NC(=O)[C@H](CCCNC(=N)N)NC1=O |  |  |  |  |  |  |  |  |  |  |  |  |  |  |
